Activity calls are given as the source filed them.
Columns and labels:
[1] = P. falciparum late gametocyte killing, dose response, luminescence (AID 1117278); format: functional, cell-based;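 note: gametocytes exposed to compound for 24 hours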
[2] = Jurkat T cell cytotoxicity, dose response, cytotoxicity control for P. falciparum gametocyte viability project, luminescence (AID 1117277); format: functional, cell-based;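 note: potency reflects loss of cellular ATP meaning fewer viable cells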
[3] = Luminescence-based cell-based high throughput dose response assay to identify activators of the DAF-12 from the parasite S. stercoralis (ssDAF-12).; format: functional
[4] = biological target: T1, Oxysterols receptor LXR-beta (Homo sapiens, UniProt P55055); experiment: LXR agonists, Gal4 luciferase reporter, dose response, counter-screen for ssDAF-12 agonist project, cell-based, luminescence, HEK293, S. stercoralis campaign (AID 720737); format: functional; settings: read-out: IC50 (the source's name)
T1 sequence (P55055 whole entry): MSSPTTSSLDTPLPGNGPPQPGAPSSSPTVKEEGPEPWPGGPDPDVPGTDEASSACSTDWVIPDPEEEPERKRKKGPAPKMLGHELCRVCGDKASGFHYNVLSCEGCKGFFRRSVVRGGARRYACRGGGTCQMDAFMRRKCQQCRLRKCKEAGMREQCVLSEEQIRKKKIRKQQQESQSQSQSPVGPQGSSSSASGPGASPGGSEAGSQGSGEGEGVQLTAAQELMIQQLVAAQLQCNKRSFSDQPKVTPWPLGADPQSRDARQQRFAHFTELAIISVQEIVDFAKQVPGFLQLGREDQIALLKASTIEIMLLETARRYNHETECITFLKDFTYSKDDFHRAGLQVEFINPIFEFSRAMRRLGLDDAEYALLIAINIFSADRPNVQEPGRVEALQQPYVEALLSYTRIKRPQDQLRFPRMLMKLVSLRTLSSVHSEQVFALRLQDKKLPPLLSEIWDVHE

[5] = cytotoxicity in HEK-293T cells, dose response, cytotoxicity control for BCR NF-kB inhibitor project, luminescence, B-cell screen hits (AID 489021); format: functional, cell-based;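 note: HEK-293T cells carrying an NF-kB luciferase reporter; cells exposed to compound for about 14 hours before viability readout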
[6] = inhibitors of Vif binding to APOBEC3G peptide, primary screen, biochemical, TR-FRET, GST-Vif 1-94, biotin-A3G peptide, dose response retest (AID 1117319); format: functional;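 note: TR-FRET signal of purified GST-Vif binding a biotinylated A3G peptide; inhibitors lower the FRET signal by blocking Vif and A3G binding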
Protein Tat = Protein Tat (Human immunodeficiency virus type 1 group M subtype B (isolate HXB2)(HIV-1), UniProt P04608); format: functional;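 note: tat binding to TAR RNA read out by fluorescence polarization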
Chain of Protein Tat (P04608 whole entry): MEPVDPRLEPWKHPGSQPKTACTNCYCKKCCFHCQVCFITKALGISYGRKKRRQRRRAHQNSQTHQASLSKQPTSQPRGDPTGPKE

[7] = Luminescence Cell-Based Dose Retest to Confirm Inhibitors of Cancer Stem Cells. [Related pubchem assays (depositor defined):AID2717, AID2721]; format: functional; settings: Homo sapiens
[8] = biological target: Neurotensin receptor type 1 (Homo sapiens, UniProt P30989); format: functional;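 note: Image-based confirmatory dose-response assay measuring agonist activity at NTR1; NTR1-expressing U2OS osteosarcoma cells imaged for beta-arrestin GFP spot formation; agonist potency where compounds increase beta-arrestin recruitment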
Chain of Neurotensin receptor type 1 (P30989 whole entry): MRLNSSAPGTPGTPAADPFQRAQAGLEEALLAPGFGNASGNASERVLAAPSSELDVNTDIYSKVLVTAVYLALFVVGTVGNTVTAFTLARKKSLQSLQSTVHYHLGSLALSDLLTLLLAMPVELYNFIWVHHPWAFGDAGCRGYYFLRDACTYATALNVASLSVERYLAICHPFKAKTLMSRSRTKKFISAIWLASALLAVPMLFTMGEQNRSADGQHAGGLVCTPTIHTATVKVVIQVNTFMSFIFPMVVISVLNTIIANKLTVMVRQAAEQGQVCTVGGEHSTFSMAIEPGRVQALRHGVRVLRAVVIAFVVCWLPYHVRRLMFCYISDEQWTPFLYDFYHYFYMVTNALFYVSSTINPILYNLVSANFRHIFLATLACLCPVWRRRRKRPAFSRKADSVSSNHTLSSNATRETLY

[9] = cytotoxicity in HMLE control line with eGFP shRNA, dose response, counter-screen for HMLE_sh_ECad selective toxicity project, cell-based, HMLE_sh_eGFP, luminescence (AID 463074); format: functional, Homo sapiens;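 note: HMLE human mammary epithelial cells expressing control shRNA against eGFP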
[10] = biological target: Heat shock protein HSP 90-alpha (Homo sapiens, UniProt P07900); format: functional, organism-based
[11] = biological target: T2, Mannose-6-phosphate isomerase (Homo sapiens, UniProt P34949); experiment: inhibitors of human PMI, primary screen, biochemical, fluorescence intensity, coupled assay (AID 1209)
T2 sequence (P34949 whole entry): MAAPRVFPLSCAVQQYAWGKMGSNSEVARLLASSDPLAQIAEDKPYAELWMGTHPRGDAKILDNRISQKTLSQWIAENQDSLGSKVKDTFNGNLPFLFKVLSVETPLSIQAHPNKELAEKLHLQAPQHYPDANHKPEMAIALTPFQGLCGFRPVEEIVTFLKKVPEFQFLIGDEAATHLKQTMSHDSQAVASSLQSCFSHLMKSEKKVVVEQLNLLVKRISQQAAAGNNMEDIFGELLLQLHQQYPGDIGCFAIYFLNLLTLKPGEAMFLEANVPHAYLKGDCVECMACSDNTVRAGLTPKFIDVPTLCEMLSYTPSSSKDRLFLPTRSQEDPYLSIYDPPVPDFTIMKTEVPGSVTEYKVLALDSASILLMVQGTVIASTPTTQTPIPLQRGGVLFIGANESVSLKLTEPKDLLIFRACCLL

INS1 = experiment: beta cell apoptosis inhibitors, cytokine rescue, dose response, luminescence, retest (AID 449756); format: functional, cell-based; settings: Rattus norvegicus;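 note: cell death triggered by IL-1 beta plus TNF-alpha plus IFN-gamma mixture; protective hits raise ATP signal compared with cytokine alone wells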
[12] = biological target: Lysosomal acid glucosylceramidase (Homo sapiens, UniProt P04062); experiment: Dose response cell-based high throughput screening assay to identify enhancers of beta-glucosidase activity. [Related pubchem assays: 784 ]; format: functional
Chain of Lysosomal acid glucosylceramidase (P04062 whole entry): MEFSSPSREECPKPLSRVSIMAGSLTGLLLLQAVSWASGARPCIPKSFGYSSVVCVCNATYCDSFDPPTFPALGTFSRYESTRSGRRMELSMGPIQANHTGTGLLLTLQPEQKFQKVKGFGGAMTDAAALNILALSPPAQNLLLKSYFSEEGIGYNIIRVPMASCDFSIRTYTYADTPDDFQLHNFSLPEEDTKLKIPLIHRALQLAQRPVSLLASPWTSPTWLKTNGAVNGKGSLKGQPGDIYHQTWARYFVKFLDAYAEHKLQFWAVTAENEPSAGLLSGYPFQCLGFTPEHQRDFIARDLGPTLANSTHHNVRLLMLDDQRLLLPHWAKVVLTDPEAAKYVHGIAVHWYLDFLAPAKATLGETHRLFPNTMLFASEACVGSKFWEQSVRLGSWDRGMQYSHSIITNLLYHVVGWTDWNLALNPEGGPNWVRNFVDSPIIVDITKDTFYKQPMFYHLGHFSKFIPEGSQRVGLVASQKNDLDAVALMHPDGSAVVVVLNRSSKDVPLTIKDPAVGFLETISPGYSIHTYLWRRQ

[13] = Luminescence Cell-Based Dose Confirmation HTS to Identify Inhibitors of Polyadenylation.; format: functional
Estrogen receptor beta [14] = biological target: T3, Estrogen receptor beta (Homo sapiens, UniProt Q92731);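 note: recombinant ER-beta bound to coactivator SRC1 peptide in presence of estradiol agonist; inhibitors block coactivator peptide binding and lower the FRET signal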
T3 sequence (Q92731 whole entry): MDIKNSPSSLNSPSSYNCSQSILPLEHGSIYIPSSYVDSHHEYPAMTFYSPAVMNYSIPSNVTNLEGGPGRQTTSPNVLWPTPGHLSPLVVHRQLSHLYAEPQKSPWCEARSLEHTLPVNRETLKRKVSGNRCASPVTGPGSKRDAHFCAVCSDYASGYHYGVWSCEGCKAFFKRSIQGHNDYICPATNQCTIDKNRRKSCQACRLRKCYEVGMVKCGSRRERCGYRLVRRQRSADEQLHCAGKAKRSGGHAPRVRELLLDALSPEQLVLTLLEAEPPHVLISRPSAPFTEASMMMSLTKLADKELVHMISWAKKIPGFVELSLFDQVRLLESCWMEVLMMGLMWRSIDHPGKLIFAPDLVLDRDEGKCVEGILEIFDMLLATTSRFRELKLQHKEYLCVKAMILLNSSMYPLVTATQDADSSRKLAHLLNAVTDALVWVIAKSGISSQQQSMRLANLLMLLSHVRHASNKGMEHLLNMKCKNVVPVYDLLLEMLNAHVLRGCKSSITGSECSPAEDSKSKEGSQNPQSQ

Estrogen receptor beta [15] = biological target: T3, Estrogen receptor beta; experiment: ERβ–SRC-3 coactivator interaction inhibitors, confirmation, orthogonal assay, biochemical, ELISA, streptavidin-HRP readout (AID 1060)
[16] = biological target: DNA dC->dU-editing enzyme APOBEC-3A (Homo sapiens, UniProt P31941); experiment: Dose Response confirmation of small molecule APOBEC3A DNA Deaminase Inhibitors via a fluorescence-based single-stranded DNA deaminase assay. [Related pubchem assays (depositor defined):AID493011, AID493024]; format: functional
Chain of DNA dC->dU-editing enzyme APOBEC-3A (P31941 whole entry): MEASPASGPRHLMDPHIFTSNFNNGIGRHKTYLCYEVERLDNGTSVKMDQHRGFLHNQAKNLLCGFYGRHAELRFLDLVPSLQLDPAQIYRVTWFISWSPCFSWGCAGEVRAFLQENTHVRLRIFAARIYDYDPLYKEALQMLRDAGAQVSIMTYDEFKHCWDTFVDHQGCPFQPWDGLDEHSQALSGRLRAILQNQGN

[17] = biological target: DNA dC->dU-editing enzyme APOBEC-3G (Homo sapiens, UniProt Q9HC16); format: functional;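 note: Dose-response counterscreen measuring inhibition of APOBEC3G DNA deaminase activity, run while confirming APOBEC3A inhibitors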
Chain of DNA dC->dU-editing enzyme APOBEC-3G (Q9HC16 whole entry): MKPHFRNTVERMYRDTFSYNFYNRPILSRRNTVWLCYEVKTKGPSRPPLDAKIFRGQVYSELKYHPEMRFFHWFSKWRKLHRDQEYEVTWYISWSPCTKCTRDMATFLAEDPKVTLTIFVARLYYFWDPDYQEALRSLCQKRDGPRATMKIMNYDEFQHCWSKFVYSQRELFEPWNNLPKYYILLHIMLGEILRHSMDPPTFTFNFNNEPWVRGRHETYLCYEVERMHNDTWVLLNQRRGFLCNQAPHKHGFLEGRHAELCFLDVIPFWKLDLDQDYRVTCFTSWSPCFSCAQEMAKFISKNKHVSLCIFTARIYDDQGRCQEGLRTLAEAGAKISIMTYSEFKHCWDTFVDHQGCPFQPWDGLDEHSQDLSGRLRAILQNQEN

[18] = Vero cell cytotoxicity, dose response, cytotoxicity control for Vif-APOBEC3G degradation inhibitor project, Vero cells (AID 1117358); format: functional; settings: Human immunodeficiency virus 1, Vero
[19] = biological target: E3 ubiquitin-protein ligase Mdm2 (Homo sapiens, UniProt Q00987); experiment: enhancers of MDM2-luciferase reporter signal, concentration-effect titration, project on inhibitors of MDM2 ubiquitin ligase, cellular assay, luminescent readout, 384-well plate format (AID 1394); format: functional;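 note: MDM2 E3 inhibitors raise luminescence so EC50 is for signal enhancement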
Chain of E3 ubiquitin-protein ligase Mdm2 (Q00987 whole entry): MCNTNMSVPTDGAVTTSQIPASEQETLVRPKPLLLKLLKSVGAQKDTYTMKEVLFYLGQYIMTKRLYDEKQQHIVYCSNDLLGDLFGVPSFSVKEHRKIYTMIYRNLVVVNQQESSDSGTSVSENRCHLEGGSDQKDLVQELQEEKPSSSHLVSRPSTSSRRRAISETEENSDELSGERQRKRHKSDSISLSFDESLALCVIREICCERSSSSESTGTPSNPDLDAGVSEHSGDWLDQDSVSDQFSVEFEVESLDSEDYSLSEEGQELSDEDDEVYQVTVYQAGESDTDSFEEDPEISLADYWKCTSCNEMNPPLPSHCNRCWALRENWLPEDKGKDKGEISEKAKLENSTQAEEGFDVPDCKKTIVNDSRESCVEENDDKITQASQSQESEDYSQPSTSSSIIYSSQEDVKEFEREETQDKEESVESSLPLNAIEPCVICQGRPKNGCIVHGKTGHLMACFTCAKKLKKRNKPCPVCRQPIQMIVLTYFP

Protein Rev = Protein Rev (Human immunodeficiency virus type 1 group M subtype B (isolate HXB2)(HIV-1), UniProt P04618); experiment: inhibitors of Rev binding to RRE RNA, dose response, biochemical, fluorescence polarization, HIV-1 (AID 434976); design: species or system Human immunodeficiency virus 1
Chain of Protein Rev (P04618 whole entry): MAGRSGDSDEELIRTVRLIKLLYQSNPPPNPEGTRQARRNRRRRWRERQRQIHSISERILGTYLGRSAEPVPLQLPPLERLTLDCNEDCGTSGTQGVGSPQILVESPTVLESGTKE

[20] = biological target: Female germline-specific tumor suppressor gld-1 (Caenorhabditis elegans, UniProt Q17339); experiment: inhibitors of GLD-1 binding to TGE RNA, dose response, biochemical, fluorescence polarization, C. elegans (AID 2802);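 note: fluorescence polarization of labeled TGE RNA bound by purified gld-1 protein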
Chain of Female germline-specific tumor suppressor gld-1 (Q17339 whole entry): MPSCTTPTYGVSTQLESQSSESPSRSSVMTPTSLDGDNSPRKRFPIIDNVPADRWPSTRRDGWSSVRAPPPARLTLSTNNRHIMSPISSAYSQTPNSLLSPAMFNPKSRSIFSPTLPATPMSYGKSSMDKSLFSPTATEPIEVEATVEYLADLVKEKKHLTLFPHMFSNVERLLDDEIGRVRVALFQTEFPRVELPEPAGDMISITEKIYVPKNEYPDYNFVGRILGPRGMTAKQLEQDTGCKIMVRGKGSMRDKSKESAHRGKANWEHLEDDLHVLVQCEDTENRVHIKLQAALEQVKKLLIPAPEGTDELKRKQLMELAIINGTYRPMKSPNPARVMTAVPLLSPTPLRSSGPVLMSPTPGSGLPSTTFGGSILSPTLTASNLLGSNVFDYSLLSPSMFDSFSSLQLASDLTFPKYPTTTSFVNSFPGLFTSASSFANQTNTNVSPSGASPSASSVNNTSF

[21] = biological target: Eukaryotic translation initiation factor 4H (Homo sapiens, UniProt Q15056); experiment: human eIF4H binding inhibitors, primary screen, translation initiation inhibitor project, biochemical, uHTS, fluorescence polarization (AID 2012)
[22] = biological target: Polyadenylate-binding protein 1 (Homo sapiens, UniProt P11940); experiment: PABP poly(A) RNA binding inhibitors, primary screen, biochemical, fluorescence polarization, uHTS (AID 2014)
Chain of Polyadenylate-binding protein 1 (P11940 whole entry): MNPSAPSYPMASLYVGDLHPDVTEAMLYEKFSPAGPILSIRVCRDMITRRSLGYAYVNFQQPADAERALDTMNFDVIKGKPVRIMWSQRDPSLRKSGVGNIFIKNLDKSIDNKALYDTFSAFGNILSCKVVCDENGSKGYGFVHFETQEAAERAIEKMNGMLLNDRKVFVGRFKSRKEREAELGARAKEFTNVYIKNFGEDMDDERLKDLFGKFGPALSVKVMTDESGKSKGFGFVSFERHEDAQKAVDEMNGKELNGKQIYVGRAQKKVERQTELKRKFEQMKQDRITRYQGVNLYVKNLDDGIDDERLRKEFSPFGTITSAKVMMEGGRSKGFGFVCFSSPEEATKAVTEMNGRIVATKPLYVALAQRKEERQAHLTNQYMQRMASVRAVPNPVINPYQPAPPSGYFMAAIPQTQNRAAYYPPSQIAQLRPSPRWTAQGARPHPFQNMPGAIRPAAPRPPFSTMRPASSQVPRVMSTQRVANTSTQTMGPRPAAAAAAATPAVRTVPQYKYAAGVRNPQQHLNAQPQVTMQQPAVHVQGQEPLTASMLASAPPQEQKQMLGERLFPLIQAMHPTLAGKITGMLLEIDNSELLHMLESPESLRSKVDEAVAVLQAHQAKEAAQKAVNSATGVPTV

[23] = biological target: T4, Alkaline phosphatase, tissue-nonspecific isozyme (Homo sapiens, UniProt P05186)
T4 sequence (P05186 whole entry): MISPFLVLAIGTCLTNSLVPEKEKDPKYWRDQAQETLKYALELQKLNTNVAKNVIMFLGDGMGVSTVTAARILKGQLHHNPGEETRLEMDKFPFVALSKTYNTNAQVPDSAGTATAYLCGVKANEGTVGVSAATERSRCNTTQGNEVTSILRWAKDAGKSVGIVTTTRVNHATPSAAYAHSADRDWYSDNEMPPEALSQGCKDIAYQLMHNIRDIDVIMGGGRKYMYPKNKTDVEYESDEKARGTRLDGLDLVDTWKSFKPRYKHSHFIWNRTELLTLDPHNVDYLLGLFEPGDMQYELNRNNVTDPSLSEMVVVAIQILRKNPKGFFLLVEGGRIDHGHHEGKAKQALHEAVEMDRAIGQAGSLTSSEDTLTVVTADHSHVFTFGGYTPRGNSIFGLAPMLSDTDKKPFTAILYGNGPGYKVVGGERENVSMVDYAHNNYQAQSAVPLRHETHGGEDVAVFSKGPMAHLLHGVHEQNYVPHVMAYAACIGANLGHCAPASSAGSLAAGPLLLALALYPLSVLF

[24] = biological target: T2, Mannose-6-phosphate isomerase; experiment: human PMI inhibitors, high substrate, primary screen, biochemical, fluorescence intensity, high mannose 6-phosphate (AID 1220)
cells = settings: HEK293
[25] = HeLa 2N DNA content increase, dose response, cell-based, IC50 (AID 1117349); format: functional
[26] = HeLa 4N DNA content increase, dose response, cell-based, IC50 (AID 1117351); format: functional

CC1CCCN(CC(O)CN)C1 (stereo unspecified)
IC50 [1]: > 109 µM (inactive) | IC50 [2]: > 83.3 µM (inactive)

Cc1c(C(=O)O/N=C(\N)c2ccccn2)cccc1[N+](=O)[O-]
IC50 [3]: > 67.6 µM (inactive) | EC50 [4]: > 67.6 µM (inactive)

O=C(CCl)Nc1ccccc1Sc1ccccc1
IC50 [5]: > 80 µM (inactive)

CCC(=O)N1CCc2cc(S(=O)(=O)NCCC(=O)NC3CCCc4ccccc43)ccc21 (stereo unspecified)
IC50 [6]: > 100 µM (active)

CCn1c(SCC(=O)Nc2cc(C)on2)nnc1-c1cccnc1
IC50 (Protein Tat): > 100 µM (active)

CCOC(=O)[C@H]1[C@H]2COc3cc(OC)ccc3[C@@H]2N2C(=O)c3ccc(C)cc3NC(=O)[C@@]12C
IC50 [1]: > 109 µM (inactive) | IC50 [2]: > 83.3 µM (inactive)

O=C(/C=C/c1ccc(Cl)c([N+](=O)[O-])c1)c1cccnc1
AC50 [7]: 4.16 µM (active) | EC50 [8]: > 40 µM (inactive) | AC50 [9]: 56.4 µM (active) | AC50 [10]: 1.31 µM (active)

COc1ccc(C(=O)NC(=S)NNC(=O)c2cnccn2)cc1OC
IC50 [11]: > 50 µM (not active) | AC50 (INS1): 1.03 µM (active)

CC(=O)c1ccc(NC(=O)CSCCO)cc1
EC50 [12]: > 50 µM (not active)

CCOc1ccc(CCNC(=O)CN2C(=O)CCSc3ccccc32)cc1OCC
EC50 [13]: > 120 µM (not active)

O=C1NCCCC2c3cc(O)c4ccccc4c3OC12N1CCCCC1 (stereo unspecified)
IC50 (Estrogen receptor beta [14]): 13.6 µM (active) | IC50 (Estrogen receptor beta [15]): > 50 µM (not active)

CCN(CC(=O)Nc1c(F)cccc1F)C(=O)c1cccc(-n2cccc2)c1
IC50 [16]: 15.9 µM (active) | IC50 [17]: 34.8 µM (active) | IC50 (Protein Tat): > 100 µM (active)

Cc1ccc(S(=O)(=O)N(C)CC(O)Cn2c3ccccc3c3ccccc32)cc1 (stereo unspecified)
CC50 [18]: > 40 µM (active)

Cc1cnc(NC(=O)Nc2ccc(Cl)cc2)s1
IC50 [5]: > 80 µM (inactive)

COc1cccc(-c2nc3ccccc3s2)c1O
IC50 [3]: > 67.6 µM (inactive) | EC50 [4]: > 67.6 µM (inactive)

COc1ccc(CC(=O)OCn2nnc3ccccc3c2=O)cc1
CC50 [18]: > 40 µM (active)

CCc1nc2oc3cc(OC)ccc3c(=O)c2c(=O)n1Cc1ccco1
IC50 (Estrogen receptor beta [14]): 30.7 µM (not active) | IC50 (Estrogen receptor beta [15]): 0.0586 µM (not active)

Nc1cccc2c1C(=O)N(C(=O)/C=C/c1cccc(Br)c1)C2=O
EC50 [19]: 7.82 µM (active) | IC50 [6]: > 100 µM (active)

Cc1ccc(-c2nc(Nc3cccc(O)c3)c3ccccc3n2)cc1
AC50 [7]: 5.05 µM (active) | EC50 [8]: 30.6 µM (inactive)

CC(CCC(C)C(C)(C)C)[C@@H]1CC[C@H]2C3C[C@H](OS(O)(=S)=S)[C@H]4C[C@H](OS(O)(=S)=S)[C@@H](OS(O)(=S)=S)C[C@]4(C)[C@H]3CC[C@]12C.Nc1ncc[nH]1 (stereo partly specified)
IC50 (Protein Rev): 8.34 µM (active) | IC50 [20]: 3.66 µM (active)

COc1ccc2c(c1)c1nnc(SC)nc1n2C
EC50 [13]: > 120 µM (not active)

CCN1C(NCc2cc(OC)c(OC)c(OC)c2)=N[C@@H](c2ccccc2)[C@H](C(=O)OC)[C@H]1C
IC50 [21]: > 100 µM (inactive) | IC50 [22]: 11.9 µM (active)

CC(Oc1ccccc1)C(=O)NNC(=O)c1ccccn1 (stereo unspecified)
EC50 [23]: 66.5 µM (not active)

O=C(NCC(=O)N(c1cccnc1)C(C(=O)NC1CCCC1)c1ccco1)c1cccs1 (stereo unspecified)
EC50 [12]: > 50 µM (not active)

Cc1ccc([N+](=O)[O-])cc1/N=C/C1=C(O)c2ccccc2CC1
IC50 [11]: > 50 µM (not active) | IC50 [24]: > 50 µM (not active)

c1ccc2c(c1)ncn2CCOc1ccc2c(c1)CCC2
AC50 (cells): 36.7 µM (active)

N#Cc1c(N2CCN(c3ccc(F)cc3)CC2)nc(N)c2c(N)nc3c(c12)CC(=O)N3C1CC1
IC50 [24]: > 50 µM (not active)

CCOc1ccc2nc3cc(N)ccc3c(N)c2c1 [ETHACRIDINE LACTATE]
IC50 [25]: > 10 µM (inactive) | IC50 [26]: > 10 µM (inactive)
